In this experiment the target is T1, TLR3 (Mus musculus, UniProt Q99MB1).
T1 construct: endogenous in cells; host or cells: sorted cDC1 from Flt3L-differentiated mouse bone marrow cultures
T1 sequence (Q99MB1 26-905): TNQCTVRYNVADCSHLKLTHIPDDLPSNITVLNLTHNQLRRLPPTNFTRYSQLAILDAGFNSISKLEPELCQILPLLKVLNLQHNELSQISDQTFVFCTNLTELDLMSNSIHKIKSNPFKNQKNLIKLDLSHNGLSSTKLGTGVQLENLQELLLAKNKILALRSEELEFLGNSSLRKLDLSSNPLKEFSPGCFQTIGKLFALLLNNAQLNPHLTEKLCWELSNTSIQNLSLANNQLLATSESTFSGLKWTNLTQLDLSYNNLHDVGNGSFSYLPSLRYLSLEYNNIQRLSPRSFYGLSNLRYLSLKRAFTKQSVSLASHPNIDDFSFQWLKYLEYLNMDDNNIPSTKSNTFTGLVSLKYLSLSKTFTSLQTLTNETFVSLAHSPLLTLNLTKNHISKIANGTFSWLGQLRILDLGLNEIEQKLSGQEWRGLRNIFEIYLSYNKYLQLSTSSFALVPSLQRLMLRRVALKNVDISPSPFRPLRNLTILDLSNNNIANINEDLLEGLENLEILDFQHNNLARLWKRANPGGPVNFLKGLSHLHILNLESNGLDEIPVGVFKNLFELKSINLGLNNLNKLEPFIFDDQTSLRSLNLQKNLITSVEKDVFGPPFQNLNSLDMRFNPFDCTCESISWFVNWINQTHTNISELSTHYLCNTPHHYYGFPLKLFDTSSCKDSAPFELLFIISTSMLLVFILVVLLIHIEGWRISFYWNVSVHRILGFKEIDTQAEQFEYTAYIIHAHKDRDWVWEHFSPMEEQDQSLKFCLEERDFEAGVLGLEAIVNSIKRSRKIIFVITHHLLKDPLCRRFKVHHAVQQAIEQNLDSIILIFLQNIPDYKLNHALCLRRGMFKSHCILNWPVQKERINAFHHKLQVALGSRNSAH
In words: Cytokine production by sorted Flt3L-DC cDC1 activated with poly I:C LMW. The experiment is classed as cell-based. The following applies: sorted cDC1, 10 μg/mL poly I:C LMW 6 h, GBZ 50 μM. As for the experimental part: FIG. 1: Guanabenz inhibits TLR3 and TLR9 activation in mouse Flt3-L DCs and human blood pDCs. A) Sorted bone marrow derived Flt3L-DCs were activated for 6 h with 10 μg/mL poly I:C LMW (TLR3 in DC1) or 1 μM ODN 1585 (TLR9 in pDCs). GBZ was added at 50 μM and inhibited IFN-β and Interleukin-6 (IL-6) production in activated cells. B) hTLR4, hTLR3, hTLR9 and hTLR7 expressed in the reporter HEK-Blue™ cells are inhibited by GBZ. TLR-expressing HEK-Blue™ cells were respectively activated with 100 ng/mL LPS, 10 μg/mL poly I:C LMW, 2.5 μM ODN 2006 or 5 μg/mL imiquimod, respectively. GBZ was added at 50 μM. TLR activity was measured indirectly through SEAP activity as absorbance at 405 nm. […] Protein concentration of IFN-α and TNF-α secreted were measured at the indicated time points or at 16 h. […]
BM-derived DCs were differentiated in vitro from the bone marrow of 6-8 weeks old male mice, using either FLT3 ligand or GM-CSF. […] For sorted Flt3L-DCs, cells were gently harvested at day 7 with cold PBS 2% FCS, centrifuged 1200 rpm 5 min at 4° C., counted and stained with for 30 mins at 4° C. […]
Mouse IFN-β quantification in culture supernatant was performed using the Mouse Interferon Beta ELISA kit (PBL InterferonSource); mouse IL-6, TNFα, IL-10, human TNFα and human IFNα were quantified using ELISA kit (eBioscience) respectively, according to manufacturer instructions. […]

From patent publication US20210177814A1, “USE OF GUANABENZ OR DERIVATES THEREOF FOR THE TREATMENT OF TYPE I IFN-DEPENDENT PATHOLOGIES” (INSERM (Institut National de la Santé et de la Recherche …, priority 2018, published 2021) come the findings set out here.

Entries after “also recorded” stand apart in the source; their conditions may differ.

In the case of `NC(N)=N/N=C/c1c(Cl)cccc1Cl` [GBZ, 2-(2,6-dichlorobenzylidene)-hydrazinecarboximidamide], the IFN-β production entry is recorded as “nearly abrogated; also recorded: inhibited” and the IL-6 production result is “nearly abrogated; also recorded: inhibited”.
